Data taken from patent US20200369728A1, “PEPTIDOMIMETIC MACROCYCLES AND USES THEREOF” (Aileron Therapeutics, Inc., priority 2015, published 2020).
Bridge positions count the residues as written; N and C are the ends. Square brackets hold non-standard residues; d marks the D form. Peptide text beside a SMILES is read from it. R8 = C=CCCCCCC[C@@](C)(N)C(=O)O; Cha = N[C@@H](CC1CCCCC1)C(=O)O; Chg = N[C@H](C(=O)O)C1CCCCC1; hLeu = CC(C)CC[C@H](N)C(=O)O; S5 = C=CCCC[C@](C)(N)C(=O)O; Nle = CCCC[C@H](N)C(=O)O; Ac3c = NC1(C(=O)O)CC1; Aib = CC(C)(N)C(=O)O

System: SJSA-1 cells
Assay: Cell lysis by peptidomimetic macrocycles (LDH release)
Format: cell-based
Settings: SJSA-1, 1 h
Procedure: SJSA-1 cells were plated out one day in advance in clear flat-bottom plates (Costar, catalog number 353072) at 7500 cells/well with 100 ul/well of growth media, leaving row H columns 10-12 empty for media alone. On the day of the assay, media was exchanged with RPMI 1% FBS media, 90 uL of media per well.
10 mM stock solutions of the peptidomimetic macrocycles were prepared in 100% DMSO. Peptidomimetic macrocycles were then diluted serially in 100% DMSO, and then further diluted 20-fold in sterile water to prepare working stock solutions in 5% DMSO/water of each peptidomimetic macrocycle at concentrations ranging from 500 μM to 62.5 μM.
10 μL of each compound was added to the 90 uL of SJSA-1 cells to yield final concentrations of 50 μM to 6.25 μM in 0.5% DMSO-containing media. The negative control (non-lytic) sample was 0.5% DMSO alone and positive control (lytic) samples include 10 μM Melittin and 1% Triton X-100.
Cell plates were incubated for 1 hour at 37° C. After the 1 hour incubation, the morphology of the cells is examined by microscope and then the plates were centrifuged at 1200 rpm for 5 minutes at room temperature. 40 μL of supernatant for each peptidomimetic macrocycle and control sample is transferred to clear assay plates. LDH release is measured using the LDH cytotoxicity assay kit from Caymen, catalog #1000882.

Structure (SMILES)	6.25 μM % Lysed cells (1 h LDH)	25 μM % Lysed cells (1 h LDH)	50 μM % Lysed cells (1 h LDH)
CC(=O)N[C@@H](CC(C)C)C(=O)N[C@H](C(=O)N[C@@H](Cc1ccccc1)C(=O)N[C@]1(C)CCCCCCC=CCCC[C@@](C)(C(=O)N[C@@H](CO)C(=O)N[C@@H](C)C(=O)N[C@@H](CCC(C)C)C(N)=O)NC(=O)[C@H](CC(C)C)NC(=O)[C@H](CCC(N)=O)NC(=O)[C@H](C)NC(=O)[C@H](Cc2c[nH]c3ccccc23)NC(=O)[C@H](Cc2ccc(O)cc2)NC(=O)[C@H](C)NC1=O)[C@@H](C)O [compound 6] (Ac-LTF[R8]AYWAQL[S5]SA[hLeu]-NH2; staple 4-11)	1%	1%	1%
CC(=O)N[C@@H](CC(C)C)C(=O)N[C@H](C(=O)N[C@@H](Cc1ccccc1)C(=O)N[C@]1(C)CCCCCCC=CCCC[C@@](C)(C(=O)N[C@@H](CO)C(=O)N[C@@H](C)C(=O)N[C@H](C(N)=O)C2CCCCC2)NC(=O)[C@H](CC(C)C)NC(=O)[C@H](CCC(N)=O)NC(=O)[C@H](C)NC(=O)[C@H](Cc2c[nH]c3ccccc23)NC(=O)[C@H](Cc2ccc(O)cc2)NC(=O)[C@H](C)NC1=O)[C@@H](C)O [compound 9] (Ac-LTF[R8]AYWAQL[S5]SA[Chg]-NH2; staple 4-11)	−3%	0%	2%
CC(=O)N[C@@H](Cc1ccccc1)C(=O)N[C@]1(C)CCCCCCC=CCCC[C@@](C)(C(=O)N[C@@H](C)C(=O)N[C@@H](C)C(=O)N[C@@H](CC(C)C)C(N)=O)NC(=O)[C@H](CC(C)C)NC(=O)C2(CC2)NC(=O)[C@H](CCC(=O)O)NC(=O)[C@H](Cc2c[nH]c3ccccc23)NC(=O)[C@H](Cc2ccc(O)cc2)NC(=O)[C@H](C)NC1=O [compound 15] (Ac-F[R8]AYWE[Ac3c]L[S5]AAL-NH2; staple 2-9)	1%	2%	5%
CC(=O)N[C@@H](Cc1ccccc1)C(=O)N[C@]1(C)CCCCCCC=CCCC[C@@](C)(C(=O)N[C@@H](C)C(=O)N[C@@H](C)C(=O)N[C@@H](Cc2ccccc2)C(N)=O)NC(=O)[C@H](CC(C)C)NC(=O)C2(CC2)NC(=O)[C@H](CCC(=O)O)NC(=O)[C@H](Cc2c[nH]c3ccccc23)NC(=O)[C@H](Cc2ccc(O)cc2)NC(=O)[C@H](C)NC1=O [compound 18] (Ac-F[R8]AYWE[Ac3c]L[S5]AAF-NH2; staple 2-9)	0%	2%	4%
CC[C@H](C)[C@H](NC(=O)[C@H](C)NC(=O)[C@H](C)NC(=O)[C@]1(C)CCCC=CCCCCCC[C@@](C)(NC(=O)[C@H](Cc2ccccc2)NC(C)=O)C(=O)N[C@@H](C)C(=O)N[C@@H](Cc2ccc(O)cc2)C(=O)N[C@@H](Cc2c[nH]c3ccccc23)C(=O)N[C@@H](CCC(=O)O)C(=O)NC2(CC2)C(=O)N[C@@H](CC(C)C)C(=O)N1)C(N)=O [compound 19] (Ac-F[R8]AYWE[Ac3c]L[S5]AAI-NH2; staple 2-9)	2%	3%	21%
CC(=O)N[C@@H](Cc1ccccc1)C(=O)N[C@]1(C)CCCCCCC=CCCC[C@@](C)(C(=O)N[C@@H](C)C(=O)N[C@@H](C)C(=O)NC(C)(C)C(N)=O)NC(=O)[C@H](CC(C)C)NC(=O)C2(CC2)NC(=O)[C@H](CCC(=O)O)NC(=O)[C@H](Cc2c[nH]c3ccccc23)NC(=O)[C@H](Cc2ccc(O)cc2)NC(=O)[C@H](C)NC1=O [compound 22] (Ac-F[R8]AYWE[Ac3c]L[S5]AA[Aib]-NH2; staple 2-9)	0%	0%	0%
CC(=O)N[C@@H](Cc1c[nH]cn1)C(=O)N[C@@H](CC(C)C)C(=O)N[C@H](C(=O)N[C@@H](Cc1ccccc1)C(=O)N[C@]1(C)CCCCCCC=CCCC[C@@](C)(C(=O)N[C@@H](C)C(=O)N[C@@H](C)C(=O)N[C@@H](CCC(C)C)C(=O)N[C@@H](C)C(N)=O)NC(=O)[C@H](CC(C)C)NC(=O)[C@H](CCC(N)=O)NC(=O)[C@H](Cc2c[nH]cn2)NC(=O)[C@H](Cc2c[nH]c3ccccc23)NC(=O)[C@H](Cc2c[nH]cn2)NC(=O)[C@H](Cc2c[nH]cn2)NC1=O)[C@@H](C)O [compound 32] (Ac-HLTF[R8]HHWHQL[S5]AA[hLeu]A-NH2; staple 5-12)	0%	2%	0%
CCCC[C@H](NC(=O)[C@H](C)NC(=O)[C@H](CCC(N)=O)NC(=O)[C@H](Cc1c[nH]cn1)NC(=O)[C@]1(C)CCCC=CCCCCCC[C@@](C)(NC(=O)[C@H](Cc2ccccc2)NC(C)=O)C(=O)N[C@@H](C)C(=O)N[C@@H](Cc2ccc(O)cc2)C(=O)N[C@@H](Cc2c[nH]c3ccccc23)C(=O)N[C@@H](CO)C(=O)N[C@@H](C)C(=O)N[C@@H](CC(C)C)C(=O)N1)C(N)=O [compound 39] (Ac-F[R8]AYWSAL[S5]HQA[Nle]-NH2; staple 2-9)	0%	0%	3%
CC(=O)N[C@@H](Cc1ccccc1)C(=O)N[C@]1(C)CCCCCCC=CCCC[C@@](C)(C(=O)N[C@@H](Cc2c[nH]cn2)C(=O)N[C@@H](CCCNC(=N)N)C(=O)N[C@@H](Cc2ccccc2)C(=O)N[C@@H](CC2CCCCC2)C(N)=O)NC(=O)[C@H](CC(C)C)NC(=O)[C@H](CCC(N)=O)NC(=O)[C@H](Cc2c[nH]cn2)NC(=O)[C@H](Cc2c[nH]c3ccccc23)NC(=O)[C@H](Cc2c[nH]cn2)NC(=O)[C@H](Cc2c[nH]cn2)NC1=O [compound 55] (Ac-F[R8]HHWHQL[S5]HRF[Cha]-NH2; staple 2-9)	1%	9%	13%
CC(=O)N[C@@H](CC(C)C)C(=O)N[C@H](C(=O)N[C@@H](Cc1ccccc1)C(=O)N[C@]1(C)CCCCCCC=CCCC[C@@](C)(C(=O)N[C@@H](C)C(=O)N[C@@H](Cc2c[nH]cn2)C(=O)N[C@@H](Cc2ccccc2)C(=O)N[C@@H](C)C(N)=O)NC(=O)[C@H](CC(C)C)NC(=O)[C@H](CCC(N)=O)NC(=O)[C@H](C(C)C)NC(=O)[C@H](Cc2c[nH]c3ccccc23)NC(=O)[C@H](Cc2c[nH]cn2)NC(=O)[C@H](C)NC1=O)[C@@H](C)O [compound 190] (Ac-LTF[R8]AHWVQL[S5]AHFA-NH2; staple 4-11)	−1%	0%	1%
CC(=O)N[C@@H](CC(C)C)C(=O)N[C@H](C(=O)N[C@@H](Cc1ccccc1)C(=O)N[C@]1(C)CCCCCCC=CCCC[C@@](C)(C(=O)N[C@@H](C)C(=O)N[C@@H](C)C(=O)N[C@@H](Cc2c[nH]c3ccccc23)C(=O)N[C@H](C)C(N)=O)NC(=O)[C@H](CC(C)C)NC(=O)[C@H](CCC(N)=O)NC(=O)[C@H](C)NC(=O)[C@H](Cc2c[nH]c3ccccc23)NC(=O)[C@H](Cc2ccc(O)cc2)NC(=O)[C@H](C)NC1=O)[C@@H](C)O [compound 211] (Ac-LTF[R8]AYWAQL[S5]AAW[dA]-NH2; staple 4-11)	5%	3%	1%
CC(C)CC[C@@H]1NC(=O)[C@H](CCC(N)=O)NC(=O)[C@H](C)NC(=O)[C@H](Cc2c[nH]c3ccccc23)NC(=O)[C@H](Cc2ccc(O)cc2)NC(=O)[C@H](CCC(=O)O)NC(=O)[C@](C)(NC(=O)[C@H](Cc2ccccc2)NC(=O)[C@@H](NC(=O)[C@H](CC(C)C)NC(=O)CN(C)C)[C@@H](C)O)CCCCCCC=CCCC[C@@](C)(C(=O)N[C@@H](CO)C(=O)N[C@@H](C)C(=O)N[C@@H](C)C(N)=O)NC1=O [compound 279]	6%	5%	6%
CCCCCC(=O)N[C@@H](CC(C)C)C(=O)N[C@H](C(=O)N[C@@H](Cc1ccccc1)C(=O)N[C@]1(C)CCCCCCC=CCCC[C@@](C)(C(=O)N[C@@H](CO)C(=O)N[C@@H](C)C(=O)N[C@@H](C)C(N)=O)NC(=O)[C@H](CCC(C)C)NC(=O)[C@H](CCC(N)=O)NC(=O)[C@H](C)NC(=O)[C@H](Cc2c[nH]c3ccccc23)NC(=O)[C@H](Cc2ccc(O)cc2)NC(=O)[C@H](CCC(=O)O)NC1=O)[C@@H](C)O [compound 280]	5%	6%	18%
CC(C)CC[C@@H]1NC(=O)[C@H](CCC(N)=O)NC(=O)[C@H](C)NC(=O)[C@H](Cc2c[nH]c3ccccc23)NC(=O)[C@H](Cc2ccc(O)cc2)NC(=O)[C@H](CCC(=O)O)NC(=O)[C@](C)(NC(=O)[C@H](Cc2ccccc2)NC(=O)[C@@H](NC(=O)[C@H](CC(C)C)NC(=O)C(C)(C)C)[C@@H](C)O)CCCCCCC=CCCC[C@@](C)(C(=O)N[C@@H](CO)C(=O)N[C@@H](C)C(=O)N[C@@H](C)C(N)=O)NC1=O [compound 284]	5%	5%	6%
CCCC[C@H](NC(=O)[C@H](C)NC(=O)[C@H](C)NC(=O)[C@]1(C)CCCC=CCCCCCC[C@@](C)(NC(=O)[C@H](Cc2ccccc2)NC(=O)[C@@H](NC(=O)[C@H](CC(C)C)NC(C)=O)[C@@H](C)O)C(=O)N[C@@H](C)C(=O)N[C@@H](Cc2ccc(O)cc2)C(=O)N[C@@H](Cc2c[nH]c3ccccc23)C(=O)N[C@@H](Cc2cc(=O)oc3cc(OC)c(OC)cc23)C(=O)N[C@@H](CCC(N)=O)C(=O)N[C@@H](CC(C)C)C(=O)N1)C(=O)N[C@@H](C)C(N)=O [compound 415]	4%	2%	2%
